{"source": "patent US9750254B2", "about": "“Agricultural or horticultural chemical, method of controlling plant diseases, and product for controlling plant diseases” (Kureha Corporation, priority 2013, dated 2017)", "format_in_all_cases": "cell-based", "key": {"Gaeumannomyces graminis": {"tested_on": "Gaeumannomyces graminis", "test": "Test Example 2: in vitro antimicrobial activity test, colony diameter on PDA plate with chemicals, 20° C., three days", "protocol": "On the other hand, Glomerella cingulata was punched out from the vicinity of a Glomerella cingulata colony that was cultured in advance on another plate culture medium free of the chemicals using a cork borer having a diameter of 4 mm, and inoculated on the PDA plate culture medium in which the chemicals were mixed. After culturing at 25° C. for seven days, the diameter of the grown colony was measured. […] Additionally, in the above formula, R represents a fungal growth inhibition rate (%), dc represents the diameter of a colony on an untreated plate, and dt represents the diameter of a colony on a chemical-treated plate. […] Meanwhile, Gaeumannomyces graminis was punched out from the periphery of a colony of Gaeumannomyces graminis using a cork borer having a diameter of 4 mm, and inoculated onto the PDA agar plates in which the chemical(s) was (were) mixed."}, "Glomerella cingulata": {"tested_on": "Glomerella cingulata", "test": "Test Example 1: in vitro antimicrobial activity test, colony diameter on PDA plate with chemicals, 25° C., seven days", "procedure": "(§1) On the other hand, Glomerella cingulata was punched out from the vicinity of a Glomerella cingulata colony that was cultured in advance on another plate culture medium free of the chemicals using a cork borer having a diameter of 4 mm, and inoculated on the PDA plate culture medium in which the chemicals were mixed. After culturing at 25° C. for seven days, the diameter of the grown colony was measured. […] Additionally, in the above formula, R represents a fungal growth inhibition rate (%), dc represents the diameter of a colony on an untreated plate, and dt represents the diameter of a colony on a chemical-treated plate."}, "[1]": {"tested_on": "Pseudocercosporella herpotrichoides", "test": "Test Example 3: in vitro antimicrobial activity test, colony diameter on PDA plate with chemicals, 20° C., seven days", "procedure": "as §1\n(§2) Inhibition rate when used as a mixture (theoretical value)=α+(100−α)×β)/100 Note that, in the formula above, α and β respectively represent the inhibition rates of the compounds during single use of the compounds.\nPseudocercosporella herpotrichoides was punched out from the vicinity of a Pseudocercosporella herpotrichoides colony using a cork borer having a diameter of 4 mm, and inoculated on the PDA plate culture medium in which the chemicals were mixed. After culturing at 20° C. for seven days, the diameter of the grown colony was measured."}, "Septoria tritici": {"tested_on": "Septoria tritici", "test": "Test Example 4: in vitro antimicrobial activity test, colony diameter on PDA plate with chemicals, 25° C., 14 days", "procedure": "as §1, §2\nIn this test example, the antimicrobial action of a mixed formulation of compound (1) and trifloxystrobin against Septoria tritici was tested.\nSeptoria tritici was punched out from the vicinity of a Septoria tritici colony that was cultured in advance on another plate culture medium free of the chemicals using a cork borer having a diameter of 4 mm, and inoculated on the PDA plate culture medium in which the chemicals were mixed."}, "Rhynchosporium secalis": {"tested_on": "Rhynchosporium secalis", "test": "Test Example 5: in vitro antimicrobial activity test, colony diameter on PDA plate with chemicals, 25° C., 14 days", "protocol": "Additionally, in the above formula, R represents a fungal growth inhibition rate (%), dc represents the diameter of a colony on an untreated plate, and dt represents the diameter of a colony on a chemical-treated plate. […] Rhynchosporium secalis was punched out from the vicinity of a Rhynchosporium secalis colony that was cultured in advance on another plate culture medium free of the chemicals using a cork borer having a diameter of 4 mm, and inoculated on the PDA plate culture medium in which the chemicals were mixed. After culturing at 25° C. for 14 days, the diameter of the grown colony was measured."}, "Pyrenophora graminea [2]": {"tested_on": "Pyrenophora graminea", "test": "Test Example 7: in vitro antimicrobial activity test (dimoxystrobin), same manner as Test Example 6", "conditions": "Compound (1) 0 ppm", "procedure": "as §1, §2\n(§3) Pyrenophora graminea was punched out from the vicinity of a Pyrenophora graminea colony that was cultured in advance on another plate culture medium free of the chemicals using a cork borer having a diameter of 4 mm, and inoculated on the PDA plate culture medium in which the chemicals were mixed. After culturing at 25° C. for 3 days, the diameter of the grown colony was measured."}, "Pyrenophora graminea [3]": {"tested_on": "Pyrenophora graminea", "test": "Test Example 6: in vitro antimicrobial activity test (picoxystrobin), colony diameter on PDA plate with chemicals, 25° C., 3 days", "conditions": "Compound (1) 0 ppm", "procedure": "as §1, §2, §3"}, "[4]": {"conditions": "Oculimacula yallundae, read-out: Fungal growth inhibition rate (%) Measured value"}, "[5]": {"conditions": "Colletotrichum gloeosporioides, read-out: Fungal growth inhibition rate (%) Measured value"}, "[6]": {"conditions": "Zymoseptoria tritici, read-out: Fungal growth inhibition rate (%) Measured value"}}}
{"smiles": "CO/C=C(/C(=O)OC)c1ccccc1Oc1cc(Oc2ccccc2C#N)ncn1", "note": "[Azoxystrobin, azoxystrobin]", "values": [{"measurement": "Fungal growth inhibition rate (%) Measured value", "setting": "Gaeumannomyces graminis; Compound (1) 0 ppm, Azoxystrobin 0.010 ppm", "value": 35, "unit": "%"}, {"measurement": "Fungal growth inhibition rate (%) Measured value", "setting": "Gaeumannomyces graminis; Compound (1) 0 ppm, Azoxystrobin 2.5 ppm", "value": 98, "unit": "%"}]}
{"smiles": "COC(=O)C1(C)CCC(Cc2ccc(Cl)cc2)C1(O)Cn1cncn1", "note": "(centres unmarked) [Compound (1)]", "values": [{"measurement": "Fungal growth inhibition rate (%) Measured value", "setting": "Glomerella cingulata; Compound (1) 0.313 ppm, Pyraclostrobin 0 ppm", "value": 45, "unit": "%"}, {"measurement": "Fungal growth inhibition rate (%) Measured value", "setting": "Gaeumannomyces graminis; Compound (1) 0.078 ppm, Azoxystrobin 0 ppm", "value": 0, "unit": "%"}, {"measurement": "Fungal growth inhibition rate (%) Measured value", "setting": "[1]; Compound (1) 0.078 ppm, Kresoxim-methyl 0 ppm", "value": 7, "unit": "%"}, {"measurement": "Fungal growth inhibition rate (%) Measured value", "setting": "Septoria tritici; Compound (1) 0.02 ppm, Trifloxystrobin 0 ppm", "value": 9, "unit": "%"}, {"measurement": "Fungal growth inhibition rate (%) Measured value", "setting": "Rhynchosporium secalis; Compound (1) 1.25 ppm, Fluoxastrobin 0 ppm", "value": 87, "unit": "%"}]}
{"smiles": "CNC(=O)/C(=N/OC)c1ccccc1COc1cc(C)ccc1C", "note": "[Dimoxystrobin, dimoxystrobin]", "values": [{"measurement": "Fungal growth inhibition rate (%) Measured value", "setting": "Pyrenophora graminea [2]; Dimoxystrobin 0.005 ppm", "value": 28, "unit": "%"}, {"measurement": "Fungal growth inhibition rate (%) Measured value", "setting": "Pyrenophora graminea [2]; Dimoxystrobin 0.02 ppm", "value": 55, "unit": "%"}, {"measurement": "Fungal growth inhibition rate (%) Measured value", "setting": "Pyrenophora graminea [2]; Dimoxystrobin 0.08 ppm", "value": 71, "unit": "%"}]}
{"smiles": "CO/N=C(/C1=NOCCO1)c1ccccc1Oc1ncnc(Oc2ccccc2Cl)c1F", "note": "[Fluoxastrobin, fluoxastrobin]", "values": [{"measurement": "inhibition at 0.005 ppm", "setting": "Rhynchosporium secalis; Rhynchosporium secalis, read-out: Fungal growth inhibition rate (%) Measured value", "value": 25, "unit": "%"}]}
{"smiles": "CO/N=C(/C(=O)OC)c1ccccc1COc1ccccc1C", "note": "[Kresoxim-methyl, kresoxim-methyl]", "values": [{"measurement": "inhibition at 0.02 ppm", "setting": "[1]; [4]", "value": 21, "unit": "%"}, {"measurement": "inhibition at 0.08 ppm", "setting": "[1]; [4]", "value": 34, "unit": "%"}, {"measurement": "inhibition at 0.31 ppm", "setting": "[1]; [4]", "value": 60, "unit": "%"}, {"measurement": "inhibition at 1.25 ppm", "setting": "[1]; [4]", "value": 90, "unit": "%"}]}
{"smiles": "CO/C=C(/C(=O)OC)c1ccccc1COc1cccc(C(F)(F)F)n1", "note": "[Picoxystrobin, picoxystrobin]", "values": [{"measurement": "Fungal growth inhibition rate (%) Measured value", "setting": "Pyrenophora graminea [3]; Picoxystrobin 0.005 ppm", "value": 36, "unit": "%"}, {"measurement": "Fungal growth inhibition rate (%) Measured value", "setting": "Pyrenophora graminea [3]; Picoxystrobin 0.02 ppm", "value": 57, "unit": "%"}, {"measurement": "Fungal growth inhibition rate (%) Measured value", "setting": "Pyrenophora graminea [3]; Picoxystrobin 0.08 ppm", "value": 71, "unit": "%"}, {"measurement": "Fungal growth inhibition rate (%) Measured value", "setting": "Pyrenophora graminea [3]; Picoxystrobin 0.31 ppm", "value": 87, "unit": "%"}, {"measurement": "Fungal growth inhibition rate (%) Measured value", "setting": "Pyrenophora graminea [3]; Picoxystrobin 1.25 ppm", "value": 94, "unit": "%"}]}
{"smiles": "COC(=O)N(OC)c1ccccc1COc1ccn(-c2ccc(Cl)cc2)n1", "note": "[Pyraclostrobin, pyraclostrobin]", "values": [{"measurement": "inhibition at 0.1575 ppm", "setting": "Glomerella cingulata; [5]", "value": 73, "unit": "%"}, {"measurement": "inhibition at 0.63 ppm", "setting": "Glomerella cingulata; [5]", "value": 89, "unit": "%"}, {"measurement": "inhibition at 10 ppm", "setting": "Glomerella cingulata; [5]", "value": 100, "unit": "%"}]}
{"smiles": "CON=C(C(=O)OC)c1ccccc1CON=C(C)c1cccc(C(F)(F)F)c1", "note": "[Trifloxystrobin, trifloxystrobin]", "values": [{"measurement": "inhibition at 0.02 ppm", "setting": "Septoria tritici; [6]", "value": 82, "unit": "%"}, {"measurement": "inhibition at 0.08 ppm", "setting": "Septoria tritici; [6]", "value": 84, "unit": "%"}, {"measurement": "inhibition at 0.31 ppm", "setting": "Septoria tritici; [6]", "value": 86, "unit": "%"}]}
